# Columns and labels:
# Format in all cases: cell-based
# human cancer cell lines = experiment: In vitro cytotoxicity study, Summarized results 2 (cell line not given); conditions: Table 4, Summarized results 2, cell line not stated
# Experimental: (§1) The goal of this protocol is to study the effects of the compounds on the proliferation of various human cancer cell lines in order to evaluate the EC50 and their activity in cellulo.
# (§2) The cells are seeded the day before treatment in 96 well plates. Each compound concentration is tested in triplicate. A 96 well plate can contain 3 compounds.
# (§3) Stock solutions of the tested compounds are prepared at 10 mM in 100% DMSO and stored at […].
# (§4) The analysis is carried out by using the GraphPad PRISM 5.0 software.
# (§5) Day 1: the cells are seeded one day before treatment with the compounds in 96 well plates. Cell suspensions for each cancer cell line are prepared with a specific density in a specific culture medium (see preceding table). Next, 100 µL of cell suspension is distributed per well (1×96 well plate per cell line).
# (§6) Day 2: 24 hours later, the […] compounds or controls (DMSO) are added to the cells ([…] of a compound solution in its specific medium with a final DMSO concentration of 0.15%).
# (§7) Each compound concentration is tested in triplicate (6 concentrations between 10^−9 M and 10^−5 M per compound). The cells are incubated at 37° C. for 72 hours with no new treatment.
# (§8) Day 5: 15 minutes before incubation of the cells with MTT (3-[4,5-dimethylthiazol-2-yl]-2,5-diphenyltetrazolium bromide), 10% SDS is added to the control wells to obtain a final concentration of 1%. The positive control of inhibition of proliferation is 1% SDS.
# (§9) Once the medium is removed, 100 µL of a solution of MTT in fresh medium is added to each well (10 μL of 10×MTT solution at 5 mg/mL in PBS +[…] of fresh medium) and the plates are incubated for 4 hours at 37° C.
# (§10) The MTT reaction is quenched and the medium is homogenized by addition of […] of 10% SDS/0.01 M HCl solution placed in each well. The medium is incubated for 2 hours at 37° C. before measuring its absorbance. Absorbance is measured at 570 nm.
# A2058 = experiment: In vitro cytotoxicity study, inhibition of cell growth (MTT); conditions: Homo sapiens, A2058, melanoma, 72 hours
# Experimental: as §1, §2
# (§11) Cell suspensions for each cancer cell line are prepared in culture medium with a specific density of the specific cell (see the following table). Then, 100 µL of cell suspension is spread per well (plate per one cell line).
# as §3, §4, §5, §6, §7, §8, §9, §10
# CFPAC-1 = experiment: as above; conditions: Homo sapiens, CFPAC-1, pancreas, 72 hours
# Experimental: as §1, §2, §11, §3, §4, §5, §6, §7, §8, §9, §10
# Capan-1 = experiment: as above; conditions: Homo sapiens, Capan-1, pancreas, 72 hours
# Experimental: as §1, §2, §11, §3, §4, §5, §6, §7, §8, §9, §10
# A375 = experiment: as above; conditions: Homo sapiens, A-375, A375, melanoma, 72 hours
# Experimental: as §1, §2, §11, §3, §4, §5, §6, §7, §8, §9, §10
# T-47D = experiment: as above; conditions: Homo sapiens, T47D, breast, 72 hours
# Experimental: as §1, §2, §11, §3, §4, §5, §6, §7, §8, §9, §10
# COLO-205 = experiment: as above; conditions: Homo sapiens, COLO-205, colon, 72 hours
# Experimental: as §1, §2, §11, §3, §4, §5, §6, §7, §8, §9, §10
# LoVo = experiment: as above; conditions: Homo sapiens, colon, 72 hours
# Experimental: as §1, §2, §11, §3, §4, §5, §6, §7, §8, §9, §10
# PF382 = experiment: as above; conditions: Homo sapiens, PF-382, PF382, lymphoid, 72 hours
# Experimental: as §1, §2, §11, §3, §4, §5, §6, §7, §8, §9, §10
# Calu-1 = experiment: as above; conditions: Homo sapiens, Calu-1, lung, 72 hours
# Experimental: as §1, §2, §11, §3, §4, §5, §6, §7, §8, §9, §10
# HepG2 = experiment: as above; conditions: Homo sapiens, HepG2, liver, 72 hours
# Experimental: as §1, §2, §11, §3, §4, §5, §6, §7, §8, §9, §10
# PC-3 = experiment: as above; conditions: Homo sapiens, PC-3, prostate, 72 hours
# Experimental: as §1, §2, §11, §3, §4, §5, §6, §7, §8, §9, §10
# MEWO = experiment: as above; conditions: Homo sapiens, melanoma, 72 hours
# Experimental: as §1, §2, §11, §3, §4, §5, §6, §7, §8, §9, §10
# AsPC-1 = experiment: as above; conditions: Homo sapiens, ASPC1, AsPC-1, pancreas, 72 hours
# Experimental: as §1, §2, §11, §3, §4, §5, §6, §7, §8, §9, §10
# IPC298 = experiment: as above; conditions: Homo sapiens, IPC-298, IPC298, melanoma, 72 hours
# Experimental: as §1, §2, §11, §3, §4, §5, §6, §7, §8, §9, §10
# BxPC3 = experiment: as above; conditions: Homo sapiens, BXPC-3, BxPC3, pancreas, 72 hours
# Experimental: as §1, §2, §11, §3, §4, §5, §6, §7, §8, §9, §10
smiles,measurement,setting,value
"Oc1ccc(-c2cnc3c(N4CCNCC4)nc4ccccc4n23)cc1O [EAPB0 2308, 4-(4-(Piperazin-1-yl)imidazo[1,2-a]quinoxalin-1-yl)benzene-1,2-diol]",IC50,human cancer cell lines; Homo sapiens,> 10 µM
"Nc1nc2ccccc2n2c(-c3ccc(O)c(O)c3)cnc12 [EAPB02302, 1-(3,4-Dihydroxyphenyl)imidazo[1,2-a]quinoxalin-4-amine]",EC50,A2058,0.013 µM
same,EC50,CFPAC-1,0.067 µM
same,EC50,Capan-1,0.206 µM
same,EC50,A375,0.06 µM
same,EC50,T-47D,0.078 µM
same,EC50,COLO-205,0.044 µM
same,EC50,LoVo,0.044 µM
same,EC50,PF382,0.029 µM
same,EC50,Calu-1,0.014 µM
same,EC50,HepG2,0.267 µM
same,EC50,PC-3,0.056 µM
same,EC50,MEWO,0.01 µM
same,EC50,AsPC-1,1.82 µM
same,EC50,IPC298,0.075 µM
same,EC50,BxPC3,0.025 µM
"CNc1nc2ccccc2n2ccnc12 [PED 26, N-Methylimidazo[1,2-a]quinoxalin-4-amine]",IC50,human cancer cell lines; Homo sapiens,> 10 µM
O=C(CNc1nc2ccccc2n2c(-c3ccc(O)c(O)c3)cnc12)NC(CO)(CO)CO [EAPB 02310],IC50,human cancer cell lines; Homo sapiens,> 10 µM
"NCCCCCCNc1nc2ccccc2n2c(-c3ccc(O)c(O)c3)cnc12 [EAPB 02307, 4-(4-((6-Aminohexyl)amino)imidazo[1,2-a]quinoxalin-1-yl)benzene-1,2-diol]",IC50,human cancer cell lines; Homo sapiens,5.69 µM
CNc1nc2ccc(OC(F)(F)F)cc2n2c(-c3ccc(O)c(O)c3)cnc12 [EAPB 02303-8b],IC50,human cancer cell lines; Homo sapiens,> 10 µM
"NCCNc1nc2ccccc2n2c(-c3ccc(O)c(O)c3)cnc12 [EAPB 02306, 4-(4-((2-Aminoethyl)amino)imidazo[1,2-a]quinoxalin-1-yl)benzene-1,2-diol]",IC50,human cancer cell lines; Homo sapiens,1.28 µM
"NCCNc1nc2ccccc2n2c(-c3ccc(O)c(O)c3)cnc12 [EAPB 02306s, 2-((1-(3,4-Dihydroxyphenyl)imidazo[1,2-a]quinoxalin-4-yl)amino)ethylammonium chloride]",IC50,human cancer cell lines,1.7 µM
"CNc1nc2ccc(C(F)(F)F)cc2n2c(-c3ccc(OC)c(OC)c3)cnc12 [EAPB 02203-8a, 1-(3,4-Dimethoxyphenyl)-N-methyl-8-(trifluoromethyl)imidazo[1,2-a]quinoxalin-4-amine]",IC50,human cancer cell lines; Homo sapiens,> 10 µM
COc1ccc(-c2cnc3c(NC(CC(C)C)C(=O)OC(C)(C)C)nc4ccccc4n23)cc1OC (stereo not drawn) [EAPB 02222],IC50,human cancer cell lines; Homo sapiens,> 10 µM
"CNc1nc2ccccc2n2c(Br)cnc12 [CPA 8, 1-Bromo-N-methylimidazo[1,2-a]quinoxalin-4-amine]",IC50,human cancer cell lines; Homo sapiens,2.35 µM
"CNc1nc2cc(OC(F)(F)F)ccc2n2c(-c3ccc(OC)c(OC)c3)cnc12 [EAPB 02203-7b, 1-(3,4-Dimethoxyphenyl)-N-methyl-7-(trifluoromethoxy)imidazo[1,2-a]quinoxalin-4-amine]",IC50,human cancer cell lines; Homo sapiens,3.49 µM
"CNc1nc2ccc(C(F)(F)F)cc2n2c(-c3ccc(O)c(O)c3)cnc12 [EAPB 02303-8a, 4-(4-(Methylamino)-8-(trifluoromethyl)imidazo[1,2-a]quinoxalin-1-yl)benzene-1,2-diol]",IC50,human cancer cell lines; Homo sapiens,> 10 µM
